# Assay results as given in patent US11117883B2 (Ariad Pharmaceuticals, Inc., priority 2016, dated 2021).
# What was measured:
# Assay in all cases: c-Kit assay: Ba/F3 KIT mutant viability (Cell Titer-Glo, 72 hours)
# Assay type in all cases: cell-based
# [1] = target: T1, BAF3 FL KIT EX11DEL/V654A (Homo sapiens, UniProt P10721, V654A, cells depend on it, form not given); details: viability after 72 hours
# T1 construct: "BAF3 FL KIT EX11DEL/ V654A"
# Experimental: (§1) KIT cDNAs were synthesized by GenScript and cloned into the pLVX-IRES-Puro vector (Clontech). Viral particles were produced by transfecting pLVX-IRES-puro vectors containing KIT mutant genes into HEK293 cells (Invitrogen) using the Trans-Lentiviral ORF Packaging Kit (Thermo Scientific). 48 hours post-transfection, virus-containing supernatants were harvested and incubated for another 48-72 hours with parental Ba/F3 cells (DSMZ) in the presence of 10 ng/mL […] (R&D Systems). Transduced Ba/F3 cells were then selected by IL-3 withdrawal and puromycin (0.5-1 μg/mL, Invitrogen).
# (§2) Cell lines (i.e., EX11DEL, EX11DEL/D816H, EX11DEL/T670I, and EX11DEL/V654A) were plated into 384 well plates using RPMI 1640 supplemented with 10% FBS at densities that produced linear growth and incubated at 37° C. in 5% (v/v) CO2. Cells were treated with eight concentrations of compound over a 4-fold dilution (10 μM to 0.61 nM) and viability was assessed using Cell Titer-Glo assay (Promega) after 72 hours. Data were plotted as percent viability relative to vehicle-treated cells. Dose-responses curves were generated and used to calculate IC50 values.
# [2] = target: T2, BAF3 FL KIT EX11DEL/T6701 (Homo sapiens, UniProt P10721, T670I, cells depend on it, form not given); details: EX11DEL/T6701, viability after 72 hours
# T2 construct: "BAF3 FL KIT EX11DEL/ T6701"
# T2 sequence (P10721 with tags, fused parts or gaps DEL557-558/T670I, form open): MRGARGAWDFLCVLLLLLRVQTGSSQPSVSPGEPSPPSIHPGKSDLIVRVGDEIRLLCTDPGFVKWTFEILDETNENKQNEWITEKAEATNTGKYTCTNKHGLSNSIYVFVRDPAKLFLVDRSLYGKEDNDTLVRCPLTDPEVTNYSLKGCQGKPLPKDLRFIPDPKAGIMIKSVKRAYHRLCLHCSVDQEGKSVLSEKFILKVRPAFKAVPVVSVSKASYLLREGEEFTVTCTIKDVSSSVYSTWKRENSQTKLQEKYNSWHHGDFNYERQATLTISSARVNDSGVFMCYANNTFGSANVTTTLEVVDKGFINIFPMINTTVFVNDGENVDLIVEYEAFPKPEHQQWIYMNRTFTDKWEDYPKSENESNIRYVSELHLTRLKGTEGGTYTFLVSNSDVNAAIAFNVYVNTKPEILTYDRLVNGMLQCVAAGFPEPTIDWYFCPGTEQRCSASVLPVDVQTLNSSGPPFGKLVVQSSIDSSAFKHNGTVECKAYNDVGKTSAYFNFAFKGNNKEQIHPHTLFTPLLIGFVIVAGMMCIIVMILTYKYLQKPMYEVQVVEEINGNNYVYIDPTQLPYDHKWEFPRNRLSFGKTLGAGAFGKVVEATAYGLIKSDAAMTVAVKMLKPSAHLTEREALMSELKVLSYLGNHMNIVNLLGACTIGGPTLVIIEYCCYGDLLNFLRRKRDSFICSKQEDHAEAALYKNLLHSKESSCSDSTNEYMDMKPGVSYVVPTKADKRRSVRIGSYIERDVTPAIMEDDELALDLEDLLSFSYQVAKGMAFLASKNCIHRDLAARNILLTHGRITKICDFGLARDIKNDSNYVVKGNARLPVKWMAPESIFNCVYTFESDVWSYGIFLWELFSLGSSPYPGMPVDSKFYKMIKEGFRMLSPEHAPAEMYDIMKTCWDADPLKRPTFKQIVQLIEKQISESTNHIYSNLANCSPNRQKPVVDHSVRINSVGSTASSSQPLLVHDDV
# Experimental: as §1, §2
# [3] = target: T3, BAF3 FL KIT EX11DEL/D816H (Homo sapiens, UniProt P10721, D816H, cells depend on it, form not given); details: viability after 72 hours
# T3 construct: "BAF3 FL KIT EX11DEL/ D816H"
# T3 sequence (P10721 with tags, fused parts or gaps DEL557-558/D816H, form open): as the sequence (P10721 with tags, fused parts or gaps DEL557-558/T670I, form open) above, with I668T, D814H counted along it
# Experimental: as §1, §2
# [4] = target: T4, BAF3 FL KIT EX11DEL (Homo sapiens, UniProt P10721, cells depend on it, form not given); details: viability after 72 hours
# T4 construct: "BAF3 FL KIT EX11DEL"
# T4 sequence (P10721 with tags, fused parts or gaps DEL557-558): as the sequence (P10721 with tags, fused parts or gaps DEL557-558/T670I, form open) above, with I668T counted along it
# Experimental: as §1, §2
# T1 sequence (P10721 with tags, fused parts or gaps DEL557-558/V654A, form open): as the sequence (P10721 with tags, fused parts or gaps DEL557-558/T670I, form open) above, with V652A, I668T counted along it
Structure (SMILES),GI50 [1],GI50 [2],GI50 [3],GI50 [4]
"Cc1ccc(C(=O)Nc2cc(C(F)(F)F)ccn2)cc1C#Cc1ccc2c(c1)ncn2C1CC1 [Compound I-13, 3-((1-cyclopropyl-1H-benzo[d]imidazol-5-yl)ethynyl)-4-methyl-N-(4-(trifluoromethyl)pyridin-2-yl)benzamide]",100 to 10000 nM,100 to 10000 nM,100 to 10000 nM,10 to 50 nM
"Cc1ccc(C(=O)Nc2cc(C(F)(F)F)ccn2)cc1C#Cc1ccc2c(c1)ncn2-c1cccc(N2CCN(C)CC2)c1 [Compound I-14, 4-methyl-3-((1-(3-(4-methylpiperazin-1-yl)phenyl)-1H-benzo[d]imidazol-5-yl)ethynyl)-N-(4-(trifluoromethyl)pyridin-2-yl)benzamide]",100 to 10000 nM,100 to 10000 nM,100 to 10000 nM,50 to 100 nM
"Cc1ccc(C(=O)Nc2cc(C(F)(F)F)ccn2)cc1C#Cc1ccc2c(c1)ncn2-c1ccc(N2CCN(C)CC2)cc1 [Compound I-15, 4-methyl-3-((1-(4-(4-methylpiperazin-1-yl)phenyl)-1H-benzo[d]imidazol-5-yl)ethynyl)-N-(4-(trifluoromethyl)pyridin-2-yl)benzamide]",100 to 10000 nM,100 to 10000 nM,100 to 10000 nM,50 to 100 nM
"Cc1ccc(C(=O)Nc2cc(C(F)(F)F)ccn2)cc1C#Cc1ccc2c(c1)ncn2-c1cnn(C)c1 [Compound I-17, 4-methyl-3-((1-(1-methyl-1H-pyrazol-4-yl)-1H-benzo[d]imidazol-5-yl)ethynyl)-N-(4-(trifluoromethyl)pyridin-2-yl)benzamide]",10 to 50 nM,10 to 50 nM,50 to 100 nM,10 to 50 nM
"Cc1ccc(NC(=O)c2ccc(CN3CCN(C)CC3)c(C(F)(F)F)c2)cc1C#Cc1ccc2c(c1)ncn2C [Compound I-18, N-(4-methyl-3-((1-methyl-1H-benzo[d]imidazol-5-yl)ethynyl)phenyl)-4-((4-methylpiperazin-1-yl)methyl)-3-(trifluoromethyl)benzamide]",100 to 10000 nM,100 to 10000 nM,100 to 10000 nM,100 to 10000 nM
"Cc1ccc(C(=O)Nc2cc(C(F)(F)F)ccn2)cc1C#Cc1ccc2c(c1)ncn2-c1cnn(C)c1 [Compound I-19, 4-methyl-3-((1-(1-methyl-1H-pyrazol-4-yl)-1H-benzo[d]imidazol-5-yl)ethynyl)-N-(4-(trifluoromethyl)pyridin-2-yl)benzamide]",10 to 50 nM,< 10 nM,10 to 50 nM,< 10 nM
"Cc1ccc(C(=O)Nc2cc(C(F)(F)F)ccn2)cc1C#Cc1ccc2c(c1)ncn2C1CCN(C)CC1 [Compound I-20, 4-methyl-3-((1-(1-methylpiperidin-4-yl)-1H-benzo[d]imidazol-5-yl)ethynyl)-N-(4-(trifluoromethyl)pyridin-2-yl)benzamide]",100 to 10000 nM,100 to 10000 nM,100 to 10000 nM,10 to 50 nM
"Cc1ccc(C(=O)Nc2cc(C(F)(F)F)ccn2)cc1C#Cc1ccc2c(c1)ncn2-c1ccccc1 [Compound I-21, 4-methyl-3-((1-phenyl-1H-benzo[d]imidazol-5-yl)ethynyl)-N-(4-(trifluoromethyl)pyridin-2-yl)benzamide]",100 to 10000 nM,100 to 10000 nM,100 to 10000 nM,100 to 10000 nM
"Cc1ccc(C(=O)Nc2ccc(N3CCN(C)CC3)c(C(F)(F)F)c2)cc1C#Cc1ccc2c(c1)ncn2C [Compound I-22, 4-methyl-3-((1-methyl-1H-benzo[d]imidazol-5-yl)ethynyl)-N-(4-(4-methylpiperazin-1-yl)-3-(trifluoromethyl)phenyl)benzamide]",100 to 10000 nM,100 to 10000 nM,100 to 10000 nM,100 to 10000 nM
"Cc1ccc(C(=O)Nc2cc(C(F)(F)F)ccn2)cc1C#Cc1ccc2c(c1)ncn2-c1cn(C)cn1 [Compound I-23, 4-methyl-3-((1-(1-methyl-1H-imidazol-4-yl)-1H-benzo[d]imidazol-5-yl)ethynyl)-N-(4-(trifluoromethyl)pyridin-2-yl)benzamide]",10 to 50 nM,< 10 nM,10 to 50 nM,< 10 nM
"Cc1ccc(C(=O)Nc2cc(C(F)(F)F)ccn2)cc1C#Cc1ccc2c(c1)ncn2-c1cn(C)nn1 [Compound I-24, 4-methyl-3-((1-(1-methyl-1H-1,2,3-triazol-4-yl)-1H-benzo[d]imidazol-5-yl)ethynyl)-N-(4-(trifluoromethyl)pyridin-2-yl)benzamide]",10 to 50 nM,< 10 nM,10 to 50 nM,< 10 nM
